Measurements taken from PMC6259918, “Antitrypanosomal Activity of Novel Benzaldehyde-Thiosemicarbazone Derivatives from Kaurenoic Acid ^†” (Molecules, 2011).
Where two headings read alike, the source gives them in different places.

Legend:
[1] = system: epimastigote forms of T. cruzi (Y strain); experiment: Antitrypanosomal assay; format: cell-based, Trypanosoma cruzi; conditions: for IC50: mean ± SD; for SI (selectivity index): SI: CC50 LLMCK2 / IC50 epimastigote
Experimental: Stock solutions of the synthetic compounds and kaurenoic acid (5, 10, 50, and 100 µg/mL) were prepared in dimethylsulfoxide with their final concentrations not exceeding 1.0%. For the assay, epimastigote forms of T. cruzi (Y strain) were harvested during the exponential phase of growth, resuspended in liver infusion tryptose broth supplemented with 10% inactivated fetal bovine serum (Gibco Invitrogen Corporation, New York, NY, USA) and plated on 24-well plates at a concentration of 1 × 10^6 cells/mL. One milliliter of diluted compounds were included in each well and incubated for 96 h at 28 °C. Cell density was determined by counting the parasites in a hemocytometer chamber (Improved Double Neubauer) under a light microscope. All assays were carried out twice, in duplicate, on separate occasions.

[2] = Cytotoxicity assay (sulforhodamine B); format: cell-based; conditions: rhesus monkey, LLMCK2 cells, 96 h incubation, mean ± SD
Experimental: The cytotoxic effect was evaluated against LLMCK2 cells in 96-well plates. A suspension of 2.5 × 10^4 cells was added to each well and left to grow as a monolayer for 24 h at 37 °C in a 5% CO2/air mixture. After this period, different concentrations of the synthetic compounds and kaurenoic acid (10 to 100 µg/mL) were added to the wells, and the plate was incubated for 96 h under the same conditions described above. The cells were fixed in 10% trichloroacetic acid at 4 °C for 1 h, washed five times with distilled water, and allowed to dry at room temperature. A solution of 4% sulforhodamine B (in 1% acetic acid) was added to each well, and the plate was kept protected from light for 30 min at 4 °C. The wells were then washed four times with 1% acetic acid, an aliquot (150 µL) of 10 mM Tris-base was added, and the aliquot was homogenized for 15 min. The absorbance was read at 530 nm in a microplate spectrophotometer, and data were calculated as the percentage of inhibition of growth. A concentration for 50% cellular toxicity (CC50) was defined as the concentration that reduced the optic density of treated cells by 50% relative to untreated cells.

[3] = Trypanosoma cruzi, 96 h, epimastigote form of T. cruzi Y strain, 96 h at 28 °C, parasite counting, read-out: Epimastigote IC50

SMILES	IC50 [1, 3]	melting point	CC50 at 96 h [2]	IC50 ([1]; epimastigote form of T. cruzi Y strain, 96 h at 28 °C, parasite counting, read-out: Epimastigote IC50)	SI (selectivity index) [1]	CC50 [2]	IC50 ([1]; Trypanosoma cruzi, 96 h, read-out: Epimastigote IC50, epimastigote form of T. cruzi Y strain, 96 h at 28 °C, parasite counting)	IC50 ([1]; read-out: Epimastigote IC50, epimastigote form of T. cruzi Y strain, 96 h at 28 °C, parasite counting)
C[C@@]12CCC[C@@](C)(C(=O)O)[C@H]1CC[C@@]13C[C@@H](CC[C@H]12)[C@](C)(NC(=S)N/N=C/c1ccccc1Cl)C3 [compound 13, N1-(E)-[2-Chlorophenyl]-N4-[ent-kauren-16β-methyl-19-oic acid]-thiosemicarbazone]	39.4 ± 14.3 µM	202.5 °C	364 ± 11.3 µM					
C[C@@]12CCC[C@@](C)(C(=O)O)[C@H]1CC[C@@]13C[C@@H](CC[C@H]12)[C@](C)(SC#N)C3 [compound 3, ent-Kauren-16α-thiocyane-16β-methyl-19-oic acid]	43.7 µM	165 °C	103.4 ± 0.7 µM	43.4 ± 5.6 µM				
C[C@@]12CCC[C@@](C)(C(=O)O)[C@H]1CC[C@@]13C[C@@H](CC[C@H]12)[C@](C)(NC(=S)N/N=C/c1cccc(Cl)c1)C3 [compound 14, N1-(E)-[3-Chlorophenyl]-N4-[ent-kauren-16β-methyl-19-oic acid]-thiosemicarbazone]	23.5 ± 7 µM	207 °C	56.2 ± 0.4 µM					
C[C@@]12CCC[C@@](C)(C(=O)O)[C@H]1CC[C@@]13C[C@@H](CC[C@H]12)[C@](C)(NC(=S)N/N=C/c1ccc(O)cc1)C3 [compound 8, N1-(E)-[4-Hydroxyphenyl]-N4-[ent-kauren-16β-methyl-19-oic acid]-thiosemicarbazone]	18.3 ± 4 µM	191.5 °C	29.5 ± 0.8 µM					
C[C@@]12CCC[C@@](C)(C(=O)O)[C@H]1CC[C@@]13C[C@@H](CC[C@H]12)[C@](C)(NC(=S)N/N=C/c1ccc(Cl)cc1)C3 [compound 15, N1-(E)-[4-Chlorophenyl]-N4-[ent-kauren-16β-methyl-19-oic acid]-thiosemicarbazone]	14.9 ± 0.3 µM	223.5 °C	28.7 ± 1.1 µM					
C[C@@]12CCC[C@@](C)(C(=O)O)[C@H]1CC[C@@]13C[C@@H](CC[C@H]12)[C@](C)(NC(=S)NN)C3 [compound 4, N4-[ent-Kauren-16β-methyl-19-oic acid]-thiosemicarbazide]	107 ± 13 µM	131 °C	71.4 ± 0.7 µM		0.7			
CN(C)c1ccc(/C=N/NC(=S)N[C@]2(C)C[C@@]34CC[C@H]5[C@@](C)(CCC[C@@]5(C)C(=O)O)[C@@H]3CC[C@@H]2C4)cc1 [compound 9, N1-(E)-[4-Dimethylaminophenyl]-N4-[ent-kauren-16β-methyl-19-oic acid]-thiosemicarbazone]	79.5 ± 17.9 µM	231 °C	248.5 ± 0.6 µM					
C[C@@]12CCC[C@@](C)(C(=O)O)[C@H]1CC[C@@]13C[C@@H](CC[C@H]12)[C@](C)(NC(=S)N/N=C/c1ccccc1[N+](=O)[O-])C3 [compound 10, N1-(E)-[2-Nitrophenyl]-N4-[ent-kauren-16β-methyl-19-oic acid]-thiosemicarbazone]	2 ± 1.1 µM	211 °C	17.1 ± 0.1 µM					
C=C1C[C@@]23CC[C@H]4[C@@](C)(CCC[C@@]4(C)C(=O)O)[C@@H]2CC[C@@H]1C3 [compound 1, ent-kaur-16-en-19-oic acid, reference compound]	102 µM				0.6	59.5 ± 0.1 µM		
C[C@@]12CCC[C@@](C)(C(=O)O)[C@H]1CC[C@@]13C[C@@H](CC[C@H]12)[C@](C)(NC(=S)N/N=C/c1ccccc1)C3 [compound 5, N1-(E)-Phenyl-N4-[ent-kauren-16β-methyl-19-oic acid]-thiosemicarbazone]	68.2 ± 11.2 µM	202 °C	31.1 ± 1 µM		0.5			
C[C@@]12CCC[C@@](C)(C(=O)O)[C@H]1CC[C@@]13C[C@@H](CC[C@H]12)[C@](C)(NC(=S)N/N=C/c1cccc([N+](=O)[O-])c1)C3 [compound 11, N1-(E)-[3-Nitrophenyl]-N4-[ent-kauren-16β-methyl-19-oic acid]-thiosemicarbazone]	19 µM	217 °C	104.8 ± 0.4 µM					
Cc1ccc(/C=N/NC(=S)N[C@]2(C)C[C@@]34CC[C@H]5[C@@](C)(CCC[C@@]5(C)C(=O)O)[C@@H]3CC[C@@H]2C4)cc1 [compound 6, N1-(E)-[4-Methylphenyl]-N4-[ent-kauren-16β-methyl-19-oic acid]-thiosemicarbazone]	23.4 ± 7.7 µM	223 °C	122.4 ± 1 µM					
COc1ccc(/C=N/NC(=S)N[C@]2(C)C[C@@]34CC[C@H]5[C@@](C)(CCC[C@@]5(C)C(=O)O)[C@@H]3CC[C@@H]2C4)cc1 [compound 7, N1-(E)-[4-Methoxyphenyl]-N4-[ent-kauren-16β-methyl-19-oic acid]-thiosemicarbazone]	16 ± 4.4 µM	214.5 °C	78.2 µM					
C[C@@]12CCC[C@@](C)(C(=O)O)[C@H]1CC[C@@]13C[C@@H](CC[C@H]12)[C@](C)(NC(=S)N/N=C/c1ccc([N+](=O)[O-])cc1)C3 [compound 12, N1-(E)-[4-Nitrophenyl]-N4-[ent-kauren-16β-methyl-19-oic acid]-thiosemicarbazone]	117 ± 12.8 µM	219.5 °C	15.2 µM		0.1			
C[C@@]12CCC[C@@](C)(C(=O)O)[C@H]1CC[C@@]13C[C@@H](CC[C@H]12)[C@](C)(N=C=S)C3 [compound 2, ent-Kauren-16α-isothiocyane-16β-methyl-19-oic acid]		174 °C	52 ± 0.3 µM		0.9		58.4 µM	58.2 ± 0.2 µM
